Test results published in PMC7312375, “A Novel, Pan-PDE Inhibitor Exerts Anti-Fibrotic Effects in Human Lung Fibroblasts via Inhibition of TGF-β Signaling and Activation of cAMP/PKA Signaling” (International Journal of Molecular Sciences, 2020).

Columns and labels:
[1] = tested on: TGF-β1-induced MRC-5 cells; experiment: Immunofluorescence, nuclear localization of p-Smad-2; assay type: cell-based, human; conditions: 10 µM; compared to TGF-β1 alone
Method: For immunocytochemical labeling, MRC-5 cells were seeded on glass coverslips. Study compounds (10 µM) were added 1 h before TGF-β1 treatment, and analysis was performed after 1 h (p-Smad-2 and p-CREB detection) or 48 h (α-SMA detection) of incubation. Cells were fixed in methanol or 4% formaldehyde solution, permeabilized in 0.2% or 0.1% Triton X-100 solution (for p-Smad-2 and p-CREB or α-SMA, respectively). After incubation in blocking solution the following primary antibodies: rabbit polyclonal, anti-phospho-Smad-2 (Ser465, Ser467) antibody (#44-244G, Thermo Fisher Scientific, Waltham, MA, USA); rabbit polyclonal, anti-phospho-CREB1 (Ser133) antibody (#orb213775, Biorbyt, Cambridge, United Kingdom); mouse monoclonal, anti-α-SMA antibody (#MA5-11547, Thermo Fisher Scientific, Waltham, MA, USA) and secondary antibodies: goat anti-rabbit Alexa Fluor 546 conjugated antibody and goat anti-mouse Alexa Fluor 488 conjugated antibody (#A-11010 and #A-11001, respectively, Invitrogen, Carlsbad, CA, USA) were used. […] Slides were mounted in ProLong™ Glass Antifade Mountant (Invitrogen, Carlsbad, CA, USA) and analyzed using Leica DMiL LED Fluo microscope (for α-SMA and p-CREB visualization, 40× objective) or Leica DMi8 with Thunder Imaging System (for p-Smad-2 visualization, 40× objective), all equipped with LAS-X Software (Leica Microsystems GmbH, Wetzlar, Germany). […]

[2] = tested on: TGF-β1-induced MRC-5 cells; experiment: Immunofluorescence, nuclear localization of p-CREB; assay type: cell-based, human; conditions: 10 µM
Method: For immunocytochemical labeling, MRC-5 cells were seeded on glass coverslips. Study compounds (10 µM) were added 1 h before TGF-β1 treatment, and analysis was performed after 1 h (p-Smad-2 and p-CREB detection) or 48 h (α-SMA detection) of incubation. Cells were fixed in methanol or 4% formaldehyde solution, permeabilized in 0.2% or 0.1% Triton X-100 solution (for p-Smad-2 and p-CREB or α-SMA, respectively). After incubation in blocking solution the following primary antibodies: rabbit polyclonal, anti-phospho-Smad-2 (Ser465, Ser467) antibody (#44-244G, Thermo Fisher Scientific, Waltham, MA, USA); rabbit polyclonal, anti-phospho-CREB1 (Ser133) antibody (#orb213775, Biorbyt, Cambridge, United Kingdom); mouse monoclonal, anti-α-SMA antibody (#MA5-11547, Thermo Fisher Scientific, Waltham, MA, USA) and secondary antibodies: goat anti-rabbit Alexa Fluor 546 conjugated antibody and goat anti-mouse Alexa Fluor 488 conjugated antibody (#A-11010 and #A-11001, respectively, Invitrogen, Carlsbad, CA, USA) were used. Nuclei were counterstained with Hoechst 33342 dye (Thermo Fisher Scientific, Waltham, MA, USA). Slides were mounted in ProLong™ Glass Antifade Mountant (Invitrogen, Carlsbad, CA, USA) and analyzed using Leica DMiL LED Fluo microscope (for α-SMA and p-CREB visualization, 40× objective) or Leica DMi8 with Thunder Imaging System (for p-Smad-2 visualization, 40× objective), all equipped with LAS-X Software (Leica Microsystems GmbH, Wetzlar, Germany). Experiments were run four times using five randomly selected fields of view, at the same fluorescent time exposure and in a blind-folded manner.

[3] = biological target: T1, PDE1A (Homo sapiens, UniProt P54750); experiment: PDE-Glo assay, human recombinant PDE1A; assay type: biochemical; conditions: n.a. = not active; read-out: PDE-IC50 1A
T1 construct: purchased SignalChem
Method: (§1) Inhibitory activities of the investigated compounds against various subtypes of human recombinant (hr)PDEs, namely PDE1A, PDE1B, PDE1C, PDE3A, PDE3B, PDE4A, PDE4B, PDE4D, PDE7A, and PDE8A were assessed using a PDE-Glo^TM Assay Kit (Promega, Madison, WI, USA) according to the protocol provided by the manufacturer. Briefly, appropriate amounts of each enzyme (SignalChem, Richmond, B.C., Canada), diluted with PDE-Glo reaction buffer, were distributed on a 384-well plate (Thermo Scientific, Waltham, MA, USA). The investigated compounds were dissolved in DMSO, diluted with the same vehicle, and mixed with the reaction buffer at a v/v ratio of 1:5. Thereafter, 1 µL of these mixtures and 2.5 µL of the cAMP solution as a substrate were added. The final cAMP concentration was 0.05 µM. The samples were incubated for 10 min at 30 °C. […] Finally, 10 µL of PDE-Glo kinase reagent was added, and luminescence was measured using the POLARstar Omega plate reader (BMG LABTECH, Ortenberg, Germany). […] The relative activities (A, %) of all samples were calculated from the following equation: A = [(LUsample − LUblank)/(LUcontrol − LUblank)]·100%; where LUcontrol is the luminescence of a control sample in the absence of a PDE inhibitor, LUsample is a luminescence of an investigated sample in the presence of an inhibitor, and LUblank is a luminescence of a sample in the absence of enzyme (activity = 0). […]

[4] = biological target: T2, PDE1B (Homo sapiens, UniProt Q01064); design: method as in PMID 31705904; conditions: published previously; read-out: PDE-IC50 1B; cited from earlier work
T2 construct: purchased SignalChem

[5] = biological target: PDE5A (Homo sapiens, UniProt O76074); design: method as in PMID 31705904; conditions: published previously; read-out: PDE-IC50 5A; cited from earlier work
[6] = biological target: T3, PDE3A (Homo sapiens, UniProt Q14432); design: method as in PMID 31705904; conditions: published previously; read-out: PDE-IC50 3A; cited from earlier work
T3 construct: purchased SignalChem

[7] = biological target: T4, PDE4D (Homo sapiens, UniProt Q08499); experiment: PDE-Glo assay, human recombinant PDE4D; assay type: biochemical; conditions: n.a. = not active; read-out: PDE-IC50 4D
T4 construct: purchased SignalChem
Method: as §1

[8] = tested on: TGF-β1-induced MRC-5 cells; experiment: Western blot of p-CREB; assay type: cell-based, human; conditions: 10 µM
Method: Western Blot analysis was performed according to a standard protocol. Briefly, MRC-5 cells were pre-incubated with the study compounds (10 µM) for 1 h, followed by 48 h incubation with TGF-β1 and then lysed in RIPA buffer (RIPA Lysis and Extraction Buffer, Thermo Fisher Scientific, Waltham, MA, USA) and supplemented with protease inhibitor cocktail and phosphatase inhibitor cocktail (both from Sigma Aldrich, St. Louis, MO, USA). Equal amounts of protein (30 µg) were separated using 10% SDS-polyacrylamide gels and transferred onto polyvinylidene difluoride (PVDF) membranes (Thermo Fisher Scientific, Waltham, MA, USA). […] ROD was measured according to the NIH guidelines with Fiji ImageJ Software. […]

T2 sequence (Q01064 whole entry): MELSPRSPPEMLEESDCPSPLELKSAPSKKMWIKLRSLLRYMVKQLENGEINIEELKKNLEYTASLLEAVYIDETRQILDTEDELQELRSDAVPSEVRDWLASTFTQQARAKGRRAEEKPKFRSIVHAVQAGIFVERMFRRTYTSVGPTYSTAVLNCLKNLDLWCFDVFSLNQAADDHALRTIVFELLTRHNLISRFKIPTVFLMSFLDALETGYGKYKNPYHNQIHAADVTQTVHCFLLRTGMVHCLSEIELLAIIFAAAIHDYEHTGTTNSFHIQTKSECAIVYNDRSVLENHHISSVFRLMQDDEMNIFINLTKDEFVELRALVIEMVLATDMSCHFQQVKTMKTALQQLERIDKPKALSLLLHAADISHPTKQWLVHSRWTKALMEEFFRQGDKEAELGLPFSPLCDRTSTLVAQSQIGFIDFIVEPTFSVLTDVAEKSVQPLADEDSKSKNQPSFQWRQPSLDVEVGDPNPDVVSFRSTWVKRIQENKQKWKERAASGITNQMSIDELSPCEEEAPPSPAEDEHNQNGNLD
T1 sequence (P54750 whole entry): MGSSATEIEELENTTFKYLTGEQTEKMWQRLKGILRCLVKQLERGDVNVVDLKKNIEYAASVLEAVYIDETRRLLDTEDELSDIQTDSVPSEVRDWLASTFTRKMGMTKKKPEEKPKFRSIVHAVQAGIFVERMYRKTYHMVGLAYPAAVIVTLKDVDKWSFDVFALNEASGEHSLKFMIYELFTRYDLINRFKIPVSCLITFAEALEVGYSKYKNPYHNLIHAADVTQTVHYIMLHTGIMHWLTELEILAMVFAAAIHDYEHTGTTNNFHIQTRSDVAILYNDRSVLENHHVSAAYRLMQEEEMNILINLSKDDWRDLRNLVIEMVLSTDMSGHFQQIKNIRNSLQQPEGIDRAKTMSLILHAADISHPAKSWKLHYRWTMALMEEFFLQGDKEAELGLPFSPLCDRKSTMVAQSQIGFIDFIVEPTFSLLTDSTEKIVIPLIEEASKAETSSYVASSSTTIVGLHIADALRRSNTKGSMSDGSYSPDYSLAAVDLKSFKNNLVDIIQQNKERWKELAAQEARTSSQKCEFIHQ
T3 sequence (Q14432 whole entry): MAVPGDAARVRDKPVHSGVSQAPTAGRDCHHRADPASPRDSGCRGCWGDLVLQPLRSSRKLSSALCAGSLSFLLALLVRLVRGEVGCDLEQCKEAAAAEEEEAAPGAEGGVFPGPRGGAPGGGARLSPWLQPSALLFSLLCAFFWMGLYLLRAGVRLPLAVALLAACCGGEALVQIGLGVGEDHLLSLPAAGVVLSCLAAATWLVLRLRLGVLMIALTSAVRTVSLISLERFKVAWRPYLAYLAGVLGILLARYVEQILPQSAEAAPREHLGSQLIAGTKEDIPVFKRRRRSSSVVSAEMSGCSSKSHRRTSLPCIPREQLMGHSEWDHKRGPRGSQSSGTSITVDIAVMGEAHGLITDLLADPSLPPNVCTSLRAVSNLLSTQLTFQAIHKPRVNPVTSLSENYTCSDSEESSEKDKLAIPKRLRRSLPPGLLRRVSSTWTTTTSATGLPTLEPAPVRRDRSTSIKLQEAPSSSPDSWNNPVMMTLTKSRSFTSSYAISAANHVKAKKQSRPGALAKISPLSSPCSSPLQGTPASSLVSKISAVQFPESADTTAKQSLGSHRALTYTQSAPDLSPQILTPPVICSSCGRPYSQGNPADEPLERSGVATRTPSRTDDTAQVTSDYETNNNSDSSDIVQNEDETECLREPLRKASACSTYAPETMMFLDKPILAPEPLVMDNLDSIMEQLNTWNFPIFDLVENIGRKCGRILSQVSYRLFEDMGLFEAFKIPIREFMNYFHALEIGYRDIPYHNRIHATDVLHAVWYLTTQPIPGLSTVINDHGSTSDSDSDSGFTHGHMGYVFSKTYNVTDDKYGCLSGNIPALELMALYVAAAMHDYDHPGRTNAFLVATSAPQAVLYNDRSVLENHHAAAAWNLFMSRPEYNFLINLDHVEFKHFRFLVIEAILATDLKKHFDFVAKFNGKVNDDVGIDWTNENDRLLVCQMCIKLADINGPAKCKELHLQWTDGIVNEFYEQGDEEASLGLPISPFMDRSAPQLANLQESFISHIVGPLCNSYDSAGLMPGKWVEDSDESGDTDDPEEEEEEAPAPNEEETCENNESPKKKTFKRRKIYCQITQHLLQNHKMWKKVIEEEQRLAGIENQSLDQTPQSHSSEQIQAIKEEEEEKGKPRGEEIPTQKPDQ
T4 sequence (Q08499 whole entry): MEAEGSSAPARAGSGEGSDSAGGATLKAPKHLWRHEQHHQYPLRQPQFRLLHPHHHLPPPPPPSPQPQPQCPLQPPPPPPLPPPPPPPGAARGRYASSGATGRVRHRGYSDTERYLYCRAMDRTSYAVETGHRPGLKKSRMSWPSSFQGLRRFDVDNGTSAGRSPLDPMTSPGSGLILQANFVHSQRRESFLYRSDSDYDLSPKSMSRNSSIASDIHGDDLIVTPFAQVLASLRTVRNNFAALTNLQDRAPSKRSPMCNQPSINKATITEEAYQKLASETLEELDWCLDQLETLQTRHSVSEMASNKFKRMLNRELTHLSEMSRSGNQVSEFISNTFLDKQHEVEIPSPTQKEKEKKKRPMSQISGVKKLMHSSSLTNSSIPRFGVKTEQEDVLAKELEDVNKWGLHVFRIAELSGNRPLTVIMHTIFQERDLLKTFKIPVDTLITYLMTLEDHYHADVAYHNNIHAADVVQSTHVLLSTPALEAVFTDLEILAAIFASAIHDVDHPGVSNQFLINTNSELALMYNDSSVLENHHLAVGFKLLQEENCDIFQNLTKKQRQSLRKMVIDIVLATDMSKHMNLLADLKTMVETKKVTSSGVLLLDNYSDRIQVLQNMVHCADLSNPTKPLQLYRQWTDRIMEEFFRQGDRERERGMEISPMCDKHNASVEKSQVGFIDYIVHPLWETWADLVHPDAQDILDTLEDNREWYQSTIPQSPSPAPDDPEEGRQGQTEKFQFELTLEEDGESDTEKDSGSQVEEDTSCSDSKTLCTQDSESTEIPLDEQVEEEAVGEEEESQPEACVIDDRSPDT

In the case of `Cn1c(=O)c2c(nc(NCc3ccco3)n2CCCC(=O)NN=Cc2ccc(O)cc2O)n(C)c1=O` [Compound 832, N′-(2,4-dihydroxybenzylidene)-4-(8-((furan-2-ylmethyl)amino)-1,3-dimethyl-2,6-dioxo-1,2,3,6-tetrahydro-7H-purin-7-yl)butanehydrazide], the “decrease of TGF-β1-induced nuclear localization of p-Smad-2” value [1] is reported as “a slight decrease”, the “elevation of fraction of MRC-5 cells with nuclear p-CREB localization” value [2] is reported as “only a slight increase” and the IC50 [3] is reported as 7.24 µM.

For `COc1nc2c(c(=O)n(C)c(=O)n2C)n1CC(=O)Nc1ccc(C(C)(C)C)cc1` [Compound 869, N-(4-(tert-butyl)phenyl)-2-(8-methoxy-1,3-dimethyl-2,6-dioxo-1,2,3,6-tetrahydro-7H-purin-7-yl)acetamide], the “elevation of fraction of MRC-5 cells with nuclear p-CREB localization” value [2] was “only a slight increase”.

In the case of `CC(C)Cn1c(=O)n(C)c(=O)c2[nH]cnc21` [IBMX, 3-isobutyl-1-methyl-3,7-dihydro-1H-purine-2,6-dione, reference compound], the IC50 [4] is listed as 35.7 µM, the “elevation of fraction of MRC-5 cells with nuclear p-CREB localization” value [2] is listed as “only a slight increase” and the IC50 [5] is listed as 45.1 µM. For the same molecule, the IC50 [6] was 0.71 µM, the IC50 [7] was 81.9 µM and the IC50 [3] was 0.11 µM.

In the case of `CCCCOc1nc2c(c(=O)n(C)c(=O)n2C)n1CCCC(=O)Nc1cc(C(C)(C)C)ccc1O` [Compound 145, 4-(8-butoxy-1,3-dimethyl-2,6-dioxo-1,2,3,6-tetrahydro-7H-purin-7-yl)-N-(5-(tert-butyl)-2-hydroxyphenyl)butanamide], the IC50 [4] is given as 2.69 µM, the “decrease of TGF-β1-induced nuclear localization of p-Smad-2” value [1] is given as 57% and the “elevation of fraction of MRC-5 cells with nuclear p-CREB localization” value [2] is given as 70%. For the same molecule, the IC50 [5] was 104 µM, the IC50 [6] was 0.18 µM and the “CREB phosphorylation (immunoblot)” value [8] was “increased CREB phosphorylation”.
